# In publication PMC11264232, “Are the metal identity and stoichiometry of metal complexes important for colchicine site binding and inhibition of tubulin polymerization?” (Dalton Transactions (Cambridge, England : 2003), 2024):
# Marks after values point to notes of the source that are not given here.
# What was measured:
# NCI-H226 = assay: NCI-60 five-dose screen; format: cell-based, human; conditions: Non-Small Cell Lung Cancer
# Procedure: (§3) The NCI-60 SRB assay was performed as described previously.[76] GI50 values (the concentration of the metal complex causing 50% growth inhibition), TGI value (the concentration of the complex causing 0% cell growth), and LC50 (the concentration of the complex causing 50% cell death) were interpolated from dose–response curves that were plots of percentage cell growth versus concentration of test compounds.
# [1] = Cyclic voltammetry in DMSO/nBu4NPF6; format: physicochemical; conditions: scan rate 100 mV s^−1
# Procedure: Cyclic voltammetric experiments with 0.5 mM solutions of 1–3 in 0.1 M nBu4NPF6 (puriss quality from Fluka (Schwerte, Germany), dried under reduced pressure at 70 °C for 24 h before use) supporting electrolyte in DMSO (SeccoSolv max. 0.025% H2O, Merck) were performed under argon atmosphere using a three-electrode setup with a platinum disk or a glassy carbon disk working electrode (from Ionode, Australia), platinum wire as a counter electrode, and silver wire as a pseudo reference electrode. All potentials in voltammetric studies were quoted vs. ferricenium/ferrocene (Fc^+/Fc) redox couple. A Heka PG310USB (Lambrecht, Germany) potentiostat with a PotMaster 2.73 software package served for the potential control in voltammetric studies. In situ ultraviolet-visible-near-infrared (UV–Vis–NIR) spectroscopic and spectroelectrochemical measurements were performed on a spectrometer Avantes (Model AvaSpec-2048_14-USB2) in 1 cm quartz cuvette or the spectroelectrochemical cell kit ([…]3) with the Pt-microstructured honeycomb working electrode, purchased from Pine Research Instrumentation (Lyon, France). The cell was positioned in the CUV-UV Cuvette Holder (Ocean Optics, Ostfildern, Germany) connected to the diode-array UV–Vis–NIR spectrometer by optical fibres. UV–Vis–NIR spectra were processed using the AvaSoft 7.7 software package. Halogen and deuterium lamps were used as light sources (Avantes, Model AvaLight-DH-S-BAL, Apeldoorn, The Netherlands). EPR spectra were measured with a X-band cw-EPR spectrometers EMX and EMX plus (Bruker) at room temperature or 100 K. Spectroelectrochemical experiments were performed in a flat cell equipped with a Pt mesh working electrode using nBu4NPF6/DMSO electrolyte. Measurements in frozen solvent glass were done in MeCN/DMF 1 : 1 v/v. Complexes 4 and 5 were dissolved under ambient conditions, and complex 3 was reduced with a stoichiometric equivalent of cobaltocene in a N2 glovebox (N2 < 2 ppm, H2O < 1 ppm). The MeCN/DMF solutions were flash frozen in liquid N2 prior to transfer to the N2 flow cryostat precooled at 100 K inside the cavity of the EPR resonator. EPR spectra were analyzed with the Easyspin toolbox,[75] running on Matlab.
# SK-OV-3 = assay: NCI-60 five-dose screen; format: cell-based, human; conditions: Ovarian cancer
# Procedure: as §3
# BT-549 = assay: NCI-60 five-dose screen; format: cell-based, human; conditions: Breast cancer
# Procedure: as §3
# A549/ATCC = assay: NCI-60 five-dose screen; format: cell-based, human; conditions: Non-Small Cell Lung Cancer
# Procedure: as §3
# LOX IMVI = conditions: Melanoma
# Source text: (§1) The proligands HL^1–HL^3 and their corresponding metal complexes 1–8 prepared in this study were subjected to evaluation of their anticancer potential, including selectivity towards specific types of cancer: leukemia, non-small cell lung (NSCLC), colon, central nervous system (CNS), melanoma, ovarian, renal, prostate and breast cancers, by the National Cancer Institute's Developmental Therapeutics Program. This evaluation involved the utilization of the NCI 60 human tumor cell line panel.[57] […] The GI50 data in μM are collected in Table 5.
# (§2) The NCI-60 SRB assay was performed as described previously.[76]
# UACC-257 = conditions: Melanoma
# Source text: as §1, §2
# SK-MEL-5 = conditions: Melanoma
# Source text: as §1, §2
# MALME-3M = conditions: Melanoma
# Source text: as §1, §2
# SK-MEL-28 = conditions: Melanoma
# Source text: as §1, §2
# MDA-MB-435 = conditions: Melanoma
# Source text: as §1, §2
# UACC-62 = conditions: Melanoma
# Source text: as §1, §2
# SK-MEL-2 = conditions: Melanoma
# Source text: as §1, §2
# M14 = conditions: Melanoma
# Source text: as §1, §2
# OVCAR-5 = assay: NCI-60 five-dose screen; format: cell-based, human; conditions: Ovarian cancer
# Procedure: as §3
# SR = assay: NCI-60 five-dose screen; format: cell-based, human; conditions: Leukemia
# Procedure: as §3
# SN12C = assay: NCI-60 five-dose screen; format: cell-based, human; conditions: Renal cancer
# Procedure: as §3
# OVCAR-4 = assay: NCI-60 five-dose screen; format: cell-based, human; conditions: Ovarian cancer
# Procedure: as §3
# HL-60(TB) = assay: NCI-60 five-dose screen; format: cell-based, human; conditions: Leukemia
# MCF7 = assay: NCI-60 five-dose screen; format: cell-based, human; conditions: Breast cancer
# Source text: (§4) GI50 values (the concentration of the metal complex causing 50% growth inhibition), TGI value (the concentration of the complex causing 0% cell growth), and LC50 (the concentration of the complex causing 50% cell death) were interpolated from dose–response curves that were plots of percentage cell growth versus concentration of test compounds.
# NCI/ADR-RES = assay: NCI-60 five-dose screen; format: cell-based, human; conditions: Ovarian cancer
# Procedure: as §3
# HCT-15 = assay: NCI-60 five-dose screen; format: cell-based, human; conditions: Colon cancer
# Procedure: as §3
# NCI-H23 = assay: NCI-60 five-dose screen; format: cell-based, human; conditions: Non-Small Cell Lung Cancer
# Procedure: as §3
# ACHN = assay: NCI-60 five-dose screen; format: cell-based, human; conditions: Renal cancer
# Procedure: as §3
# HT29 = assay: NCI-60 five-dose screen; format: cell-based, human; conditions: Colon cancer
# Procedure: as §3
# HCT-116 = assay: NCI-60 five-dose screen; format: cell-based, human; conditions: Colon cancer
# Procedure: as §3
# SF-295 = assay: NCI-60 five-dose screen; format: cell-based, human; conditions: CNS cancer
# Source text: as §4
compound,measurement,setting,value
"CC(=NN=C([S-])Nc1cc(C)c(O)c(C)c1)c1cccc(CN2CCOCC2)n1.CC(=NN=C([S-])Nc1cc(C)c(O)c(C)c1)c1cccc(CN2CCOCC2)n1.O=[N+]([O-])[O-].[Fe+3] [Complex 4, [Fe^III(L^2)2]NO3]",GI50,NCI-H226,2540 nM
same,1st oxidation potential (peak potential Ep),[1],0.40^i* volts vs. Fc^+/Fc
same,1st reduction potential (E1/2 or Ep),[1],−0.35^r volts vs. Fc^+/Fc
same,2nd reduction potential (E1/2 or Ep),[1],−1.85^q volts vs. Fc^+/Fc
same,GI50,SK-OV-3,2700 nM
same,GI50,BT-549,2190 nM
same,GI50,A549/ATCC,2440 nM
same,GI50,LOX IMVI,2340 nM
same,GI50,UACC-257,4340 nM
same,GI50,SK-MEL-5,1100 nM
same,GI50,MALME-3M,1930 nM
same,GI50,SK-MEL-28,2380 nM
same,GI50,MDA-MB-435,2310 nM
same,GI50,UACC-62,1860 nM
same,GI50,SK-MEL-2,1670 nM
same,GI50,M14,2370 nM
same,GI50,OVCAR-5,2740 nM
same,GI50,SR,2430 nM
same,GI50,SN12C,2530 nM
same,GI50,OVCAR-4,3250 nM
same,GI50,HL-60(TB),1410 nM
same,GI50,MCF7,1950 nM
same,GI50,NCI/ADR-RES,2980 nM
same,GI50,HCT-15,2360 nM
same,GI50,NCI-H23,2230 nM
same,GI50,ACHN,3100 nM
same,GI50,HT29,7120 nM
same,GI50,HCT-116,2300 nM
same,GI50,SF-295,1940 nM
